Assays:
[1] = target: T1, sulfenic acid form of C165S AhpC (Salmonella typhimurium, UniProt P0A251, C166S); assay: Labeling of sulfenic acid-containing C165S AhpC, adducts analysed by ESI-MS; assay type: biochemical; conditions: for Observed increase in mass of product compared with R—SH form / covalent adduct formation with the sulfenic acid form of the peroxidase: ESI-MS, 5 mM reagent; for Observed increase in mass of product compared with R—SH form: 60 min, room temperature; for covalent adduct formation with the sulfenic acid form of the peroxidase: aqueous neutral pH buffer; for labeling of the protein when 1:1 mixtures of 6 and 7 are added: ESI-MS of intact proteins
T1 construct: made in house
T1 sequence (P0A251 whole entry C166S): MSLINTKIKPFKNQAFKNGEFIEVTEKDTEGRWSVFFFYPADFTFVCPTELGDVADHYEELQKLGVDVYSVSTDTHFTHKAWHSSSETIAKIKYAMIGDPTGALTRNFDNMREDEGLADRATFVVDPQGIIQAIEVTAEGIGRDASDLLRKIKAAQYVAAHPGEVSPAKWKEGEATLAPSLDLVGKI
Method: (§1) Reactivity of new compounds toward cysteine sulfenic acids in proteins. To test for the reactivity of 6 and 7 toward protein sulfenic acids, a mutant, cysteine-dependent peroxidase enzyme was used in which the oxidized, sulfenic acid form of the cysteinyl redox center is stabilized, yet accessible (the C165S mutant of AhpC from Salmonella typhimurium, a peroxiredoxin) (3, 9, 14).
[drawing 11] washed proteins following incubations with the labeling agents (FIG. 1 and data not shown). As illustrated in FIG. 1 and summarized in Table 1, mass spectrometry results were completely consistent with the expected reactivity and products generated with the sulfenic acid-containing protein using dimedone, 1,3-cyclohexadione and our two new labeling agents (6 and 7). […] Under the conditions used, the sulfenic acid form of the protein either reacts with the reagent or is further oxidized during the workup or analysis of the sample, and is therefore not observed. In a subsequent experiment
Generation of pure, sulfenic acid-containing C165S AhpC. The C165S mutant of AhpC was expressed in bacteria and purified in the presence of 5 mM 1,4-dithiothreitol (added to all buffers) essentially as described previously (9). Purification of wild type AhpC was also carried out as previously described (10). For generation of the sulfenic acid form of C165S AhpC, thawed enzyme in 25 mM phosphate buffer at pH 7, containing 1 mM EDTA, was washed free of the dithiothreitol and transferred into fresh buffer using a PD-10 column (Amersham Biosciences), and pooled fractions were transferred to an anerobic cuvette. The protein solution (160 nmol in 0.60 mL) was made anaerobic by repeated cycles of argon and vacuum over about 30 min, then rapidly titrated with 11 mM hydrogen peroxide to give a maximal absorbance signal at ˜367 nm for the sulfenate anion as described previously (3, 4). In subsequent experiments, optimal sulfenic acid formation was observed by adding and mixing the hydrogen peroxide much more slowly (additions of about 0.05 eq and thorough mixing every ˜1 min) and quantitating the sulfenic acid formed using a freshly-prepared 2-nitro-5-thiobenzoate (TNB) solution (0.28 mL) and a 60 μL aliquot of the protein removed anaerobically from the cuvette (3, 4). Using this method, ˜73% of the protein was converted to the sulfenic acid form after addition of 1.08 eq of hydrogen peroxide. Protein was kept in the anaerobic cuvette at room temperature for several hours before conducting experiments with no loss in sulfenic acid content.
(§2) Labeling of sulfenic acid-containing C165S AhpC for spectral and mass spectrometric analysis. The pure, oxidized enzyme (32 μL, 6 nmol each) from the anaerobic cuvette was added to argon-flushed 500 μL Eppendorf tubes containing the compound of choice (either dimethylsulfoxide alone, or dimethylsulfoxide into which dimedone, 1,3-cyclohexanedione, 6 or 7 had been dissolved) to give a final concentration of 5 mM for the added reagent in final volumes of 50 μL, and the tubes were flushed again with argon before closing. Other redox forms of C165S AhpC or the wild-type enzyme were also tested for reactivity with one or more of these four compounds. Approximate 100 mM stock solutions of 6 or 7 in dimethylsulfoxide were standardized using expected extinction coefficients of 5,700 or 25,000 M^−1 cm^−1, respectively, for the esterified isatoic acid conjugate or the methoxycoumarin conjugate in methanol (11). Samples were incubated at room temperature for 60 min, then transferred to Apollo ultrafiltration devices (30K cutoff, Orbital Biosciences, Topsfield, Mass.), washed with 5.5 mL 10 mM ammonium bicarbonate and reconcentrated to about 50 μL, for a total of four washes (>10^8-fold dilution of the initial small molecule components).
Mass spectrometric and spectral analyses of adducts with the sulfenic acid-containing form of C165S AhpC. […]

[2] = test system: thiol, disulfide or hyperoxidized forms of AhpC (wild type or C165S); assay: Control reactions with other redox forms of AhpC (ESI-MS adduct detection); assay type: biochemical, Salmonella typhimurium; conditions: for reaction with protein amine groups: reduced or oxidized wild type or reduced C165S AhpC; for reactivity of thiol, disulfide or hyperoxidized forms of AhpC (ESI-MS-detectable adduct formation): wild type or C165S
Excerpt: as §1
The thiol group of the reduced protein and the oxidized, disulfide-bonded form of wild type AhpC were also unreactive toward these compounds, as confirmed by electrospray ionization mass spectrometry (ESI-MS) of the ammonium bicarbonate-washed
(§3) Specificity of fluorescent, cyclohexadione-derived regents toward sulfenic acids in proteins. The known reactivity of the nucleophilic center of dimedone is toward cysteine sulfenic acids and aldehydes (15, 16). […] To test for general cross-reactivity of these reagents with other oxidized sulfur-containing functional groups, we tested the reactivity of dimedone, as a model reagent, with a S-nitrosothiol and two sulfoxides.
as §2

[3] = Control reaction with amine
[4] = Cross-reactivity with S-nitrosothiol (absorbance spectroscopy); conditions: one hour, room temperature
Excerpt: as §3

[5] = Control reaction with aldehyde
[6] = cited from earlier work
[7] = Cross-reactivity with sulfoxide (NMR, spectroscopic and chemical isolation); conditions: aqueous solution
Excerpt: as §3

| SMILES | reactivity toward cysteine sulfenic acids relative to dimedone [1] | Observed increase in mass of product compared with R—SH form [1] [amu] | reaction with protein amine groups [2] | reactivity of thiol, disulfide or hyperoxidized forms of AhpC (ESI-MS-detectable adduct formation) [2] | covalent adduct formation with the sulfenic acid form of the peroxidase [1] | labeling of the protein when 1:1 mixtures of 6 and 7 are added [1] | reaction with benzylamine ([3]; aqueous ethanol) | reaction with benzylamine ([3]; organic solvent) | reaction with S-nitrosoglutathione [4] | reaction with butyraldehyde ([5]; in the presence of piperidine, 50° C., aqueous ethanol) | reaction with butyraldehyde ([5]; room temperature, absence of base) | pka of active methylene group [6] | reaction with dimethyl sulfoxide [7] | reaction with methionine sulfoxide [7] |
| --- | --- | --- | --- | --- | --- | --- | --- | --- | --- | --- | --- | --- | --- | --- |
| O=C1CCCC(=O)C1 [1,3-cyclohexadione, 1,3-cyclohexanedione] | at least equivalent reactivity | 109.2 |  |  |  |  |  |  |  |  |  |  |  |  |
| CNc1ccccc1C(=O)OCCCC1CCC(=O)CC1=O (stereo not shown) [compound 6, 3-(2,4-Dioxocyclohexyl)propyl 2-(methylamino)benzoate] |  | 300.7 | do not react | lack of reactivity | gave covalent adducts | approximately equal labeling |  |  |  |  |  |  |  |  |
| COc1ccc2cc(NC(=O)OCCCC3CCC(=O)CC3=O)c(=O)oc2c1 (stereo not shown) [compound 7, 3-(2,4-Dioxocyclohexyl)propyl 7-methoxy-2-oxo-2H-chromen-3-ylcarbamate] |  | 384.5 | do not react | lack of reactivity | gave covalent adducts | approximately equal labeling |  |  |  |  |  |  |  |  |
| CC1(C)CC(=O)CC(=O)C1 [dimedone, 5,5-dimethyl-1,3-cyclohexanedione] |  | 137.3 |  | lack of reactivity |  |  | no reaction occurs | condenses with benzylamine to form an imine | fails to react | reacts | fails to react | 5.15 | does not react | does not react |
